Measured values as given in patent publication US8497278B2, “Imidazo[1,2-a]pyridine compounds” (priority 2008, dated 2013).

How the values were obtained:
[1] = target: T1, α2 subtype containing GABA-A receptors (Homo sapiens, UniProt P18507+P47869); test: Two-electrode voltage clamp electrophysiology in Xenopus oocytes, potentiation of GABA EC20 response, α2; assay type: cell-based; conditions: 100 nM compound; for activation at 0.1 µM: read-out: Percentage of potentiation alpha2
T1 construct: expressed in transfected cells; host or cells: Xenopus laevis oocytes, cRNA injected
T1 sequence (P47869 29-451): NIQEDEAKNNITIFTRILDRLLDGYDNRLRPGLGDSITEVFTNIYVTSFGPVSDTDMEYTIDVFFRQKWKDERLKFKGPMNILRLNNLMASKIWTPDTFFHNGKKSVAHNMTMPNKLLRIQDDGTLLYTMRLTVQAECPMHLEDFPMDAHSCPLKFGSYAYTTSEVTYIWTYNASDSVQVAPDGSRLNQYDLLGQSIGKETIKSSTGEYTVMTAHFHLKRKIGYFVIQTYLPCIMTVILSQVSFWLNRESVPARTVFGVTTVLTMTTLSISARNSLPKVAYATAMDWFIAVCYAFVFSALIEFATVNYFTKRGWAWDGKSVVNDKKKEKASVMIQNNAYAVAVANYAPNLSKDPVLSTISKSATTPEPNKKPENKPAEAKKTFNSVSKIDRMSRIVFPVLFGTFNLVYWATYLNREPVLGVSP
T1 sequence (P28472 26-473 partner): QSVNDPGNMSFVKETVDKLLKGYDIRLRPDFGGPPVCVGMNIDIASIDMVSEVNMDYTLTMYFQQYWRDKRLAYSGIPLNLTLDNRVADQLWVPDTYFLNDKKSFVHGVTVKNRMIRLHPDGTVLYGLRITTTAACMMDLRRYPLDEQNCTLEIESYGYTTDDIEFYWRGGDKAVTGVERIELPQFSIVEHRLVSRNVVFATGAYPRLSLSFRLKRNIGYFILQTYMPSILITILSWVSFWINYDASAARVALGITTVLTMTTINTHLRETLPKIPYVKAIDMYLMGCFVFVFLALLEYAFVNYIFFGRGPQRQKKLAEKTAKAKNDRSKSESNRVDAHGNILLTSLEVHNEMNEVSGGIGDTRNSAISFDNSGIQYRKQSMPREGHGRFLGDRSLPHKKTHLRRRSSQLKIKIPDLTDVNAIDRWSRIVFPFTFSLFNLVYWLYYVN
T1 sequence (P18507 40-475): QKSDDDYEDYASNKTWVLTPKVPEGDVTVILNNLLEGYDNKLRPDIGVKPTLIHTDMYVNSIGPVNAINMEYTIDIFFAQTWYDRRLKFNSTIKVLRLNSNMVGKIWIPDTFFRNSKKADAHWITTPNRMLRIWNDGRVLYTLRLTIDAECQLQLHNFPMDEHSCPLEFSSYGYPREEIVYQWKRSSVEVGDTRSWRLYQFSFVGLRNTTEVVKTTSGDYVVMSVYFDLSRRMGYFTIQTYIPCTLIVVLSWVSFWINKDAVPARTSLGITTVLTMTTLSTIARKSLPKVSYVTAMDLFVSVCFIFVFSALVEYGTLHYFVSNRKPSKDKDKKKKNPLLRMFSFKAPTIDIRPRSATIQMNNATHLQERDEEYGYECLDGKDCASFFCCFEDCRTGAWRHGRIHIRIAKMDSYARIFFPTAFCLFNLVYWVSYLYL
Description: Electrophysiology protocol: Oocytes were prepared from adult female Xenopus laevis frogs. cRNA encoding human α1, α2, α3, α5, β3 and γ2L GABAA receptor subunits was injected into the cytoplasm of stage 5 or 6 oocytes using the Robocyte Robot (Multi Channel Systems, Reutlingen, Germany). Two-electrode voltage clamp recordings were made in 96-well plates using the Robocyte Robot. Oocytes were impaled using recording heads with two glass electrodes containing 1.5 M potassium acetate and 0.5 M KCl and held at a membrane potential of −80 mV. Oocytes were continually perfused with a ND96 solution (96 mM NaCl, 2 mM KCl, 0.1 mM CaCl2, and 5 mM HEPES, pH 7.5) using a Gilson 222 XL Liquid Handler and Gilson Minipuls 3 Peristaltic Pump (Gilson Medical Electronics, Middleton, Wis., USA). The protocol consisted of three 20-s applications of GABA that gave a 20% of the maximum response (EC20: 60 μM) to allow for headroom to determine a baseline GABA response. To assess the potentiation, oocytes were first exposed to a single 1 μM chlordiazepoxide (CDP) as a potentiation standard. Oocytes with insufficient expression levels (currents below threshold) or insufficient γ2L subunit incorporation (judged by rapid desensitization upon GABA application, or by insufficient potentiation by CDP) were not included in analysis. Following this control application, a given oocyte was exposed to test compounds at 100 nM concentrations. Only one concentration of one compound was tested per oocyte. […] One skilled in the art will recognize that subtypes contribute to the effects of GABA-A modulators. Such that compounds favoring different subtypes can have different therapeutic effects. The magnitude of modulation, for example, partial modulators can influence the effects in vivo. “++” indicates a greater modulation that “+” so that at any given subtype “++” inducates a greater amount of modulation for that subtype. In some embodiments, modulation favoring alpha 1 relative to alpha2 and/or alpha 3 can have sedative hypnotic effects. In other embodiments, compounds with reduced selectivity of alpha 1 can express anxiolytic effects with less sedation. Compounds with selectivity for alpha 5 can have memory/cognition enhancing effects.

[2] = target: T2, α1 subtype containing GABA-A receptors (Homo sapiens, UniProt P14867+P18507); test: Two-electrode voltage clamp electrophysiology in Xenopus oocytes, potentiation of GABA EC20 response, α1; assay type: cell-based; conditions: 100 nM compound; for activation at 0.1 µM: read-out: Percentage of potentiation alpha1
T2 construct: expressed in transfected cells; host or cells: Xenopus laevis oocytes, cRNA injected
T2 sequence (P14867 28-456): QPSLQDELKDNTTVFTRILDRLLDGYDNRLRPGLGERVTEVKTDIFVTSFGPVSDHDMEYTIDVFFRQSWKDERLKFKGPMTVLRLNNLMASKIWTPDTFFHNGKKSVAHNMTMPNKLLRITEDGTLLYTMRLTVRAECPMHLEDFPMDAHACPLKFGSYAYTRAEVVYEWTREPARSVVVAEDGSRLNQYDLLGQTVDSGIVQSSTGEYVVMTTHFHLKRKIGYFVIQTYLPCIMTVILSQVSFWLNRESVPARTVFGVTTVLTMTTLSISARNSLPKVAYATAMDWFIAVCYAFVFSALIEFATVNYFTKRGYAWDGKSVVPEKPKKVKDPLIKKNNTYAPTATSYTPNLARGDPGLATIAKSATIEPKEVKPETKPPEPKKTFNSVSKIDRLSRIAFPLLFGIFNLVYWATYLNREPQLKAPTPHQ
T2 sequence (P28472 26-473 partner): as the sequence (P28472 26-473 partner) above
T2 sequence (P18507 40-475): as the sequence (P18507 40-475) above
In short: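 TEVC, oocytes expressing human αx/β3/γ2L GABA-A; Vh −80 mV; ND96 pH 7.5 perfusion. 3 × 20-s GABA EC20 (60 μM) baseline → 1 μM CDP standard → compound 100 nM. Low-current or poorly γ2L-incorporating oocytes excluded.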

[3] = system: central benzodiazepine receptors; test: Central benzodiazepine receptor binding (test of Speth et al.); conditions: 1000 nM of the compound
In short: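 Values are percent inhibition of central benzodiazepine receptor binding at 1000 nM compound (initial single-point screen at 1.0E-09, 1.0E-07 and 1.0E-05 M). Speth et al. binding test; nonspecific binding defined with excess unlabelled ligand and subtracted from total.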

SMILES | Percentage of potentiation alpha2 [1] | Percentage of potentiation alpha1 [2] | % Inhibition at 1000 nM for CBZD [3] | activation at 0.1 µM [1] | activation at 0.1 µM [2]
Cc1ccc(-c2nc3ccc(C)cn3c2Cn2cccn2)cc1 [Compound 8, 3-((1H-pyrazol-1-yl)methyl)-6-methyl-2-p-tolylH-imidazo[1,2-a]pyridine] | + (percentage of potentiation is greater than or equal to 10% but less than 50% in the presence of 100 nM of the compound) | ++ (percentage of potentiation is greater than or equal to 50% in the presence of 100 nM of the compound) | ++ (percentage of inhibition of central BZD site binding is greater than 80% in the presence of 1000 nM of the compound) |  | 
CN1CC[C@H](Oc2ccnc(NCc3c(-c4ccc(F)cc4)nc4ccc(Cl)cn34)n2)C1 [Compound 184, (S)—N-((6-chloro-2-(4-fluorophenyl)imidazo[1,2-a]pyridin-3-yl)methyl)-4-(1-methylpyrrolidin-3-yloxy)pyrimidin-2-amine] |  |  | ++ (percentage of inhibition of central BZD site binding is greater than 80% in the presence of 1000 nM of the compound) | 10 to 50% | 10 to 50%
Clc1ccc(-c2nc3ccccn3c2Cn2nc3ccccc3n2)cc1 [Compound 43, 2-((2-(4-chlorophenyl)H-imidazo[1,2-a]pyridin-3-yl)methyl)-2H-benzo[d][1,2,3]triazole] | + (percentage of potentiation is greater than or equal to 10% but less than 50% in the presence of 100 nM of the compound) | 0 (percentage of potentiation is between about 10% to about −10%) | ++ (percentage of inhibition of central BZD site binding is greater than 80% in the presence of 1000 nM of the compound) |  | 
O=c1nc(-n2cncn2)ccn1Cc1c(-c2ccc(Cl)cc2)nc2ccccn12 [Compound 138, 1-((2-(4-chlorophenyl)imidazo[1,2-a]pyridin-3-yl)methyl)-4-(1H-1,2,4-triazol-1-yl)pyrimidin-2(1H)-one] |  |  | ++ (percentage of inhibition of central BZD site binding is greater than 80% in the presence of 1000 nM of the compound) | 10 to 50% | 10 to 50%
Cc1nnc(Cc2c(-c3ccccc3)nc3ccc(Cl)cn23)[nH]1 [Compound 234, 6-chloro-3-((5-methyl-4H-1,2,4-triazol-3-yl)methyl)-2-phenylimidazo[1,2-a]pyridine] |  |  | ++ (percentage of inhibition of central BZD site binding is greater than 80% in the presence of 1000 nM of the compound) | ≥ 50% | 10 to 50%
O=c1ccn(Cc2c(-c3ccc(Cl)cc3)nc3ccccn23)c(=O)[nH]1 [Compound 123, 1-((2-(4-chlorophenyl)imidazo[1,2-a]pyridin-3-yl)methyl)pyrimidine-2,4(1H,3H)-dione] |  |  | ++ (percentage of inhibition of central BZD site binding is greater than 80% in the presence of 1000 nM of the compound) | 10 to 50% | 10 to 50%
Cc1ccc(-c2nc3ccc(C)cn3c2Cn2cncn2)cc1 [Compound 7, 3-((1H-1,2,4-triazol-1-yl)methyl)-6-methyl-2-p-tolylH-imidazo[1,2-a]pyridine] | + (percentage of potentiation is greater than or equal to 10% but less than 50% in the presence of 100 nM of the compound) | + (percentage of potentiation is greater than or equal to 10% but less than 50% in the presence of 100 nM of the compound) | ++ (percentage of inhibition of central BZD site binding is greater than 80% in the presence of 1000 nM of the compound) |  | 
Fc1ccc(-c2nc3ccccn3c2Cn2nccn2)cc1 [Compound 49, 3-((2H-1,2,3-triazol-2-yl)methyl)-2-(4-fluorophenyl)H-imidazo[1,2-a]pyridine] | + (percentage of potentiation is greater than or equal to 10% but less than 50% in the presence of 100 nM of the compound) | 0 (percentage of potentiation is between about 10% to about −10%) | ++ (percentage of inhibition of central BZD site binding is greater than 80% in the presence of 1000 nM of the compound) |  | 
CN(C)CCNc1cc(Cc2c(-c3ccc(Cl)cc3)nc3ccccn23)ncn1 [Compound 243, N^1-(6-((2-(4-chlorophenyl)imidazo[1,2-a]pyridin-3-yl)methyl)pyrimidin-4-yl)-N^2,N^2-dimethylethane-1,2-diamine] |  |  | ++ (percentage of inhibition of central BZD site binding is greater than 80% in the presence of 1000 nM of the compound) | 10 to 50% | 10 to 50%
Clc1ccc(-c2nc3ccc(Cl)cn3c2Cn2ccnn2)cc1 [Compound 19, 3-((1H-1,2,3-triazol-1-yl)methyl)-6-chloro-2-(4-chlorophenyl)H-imidazo[1,2-a]pyridine] | + (percentage of potentiation is greater than or equal to 10% but less than 50% in the presence of 100 nM of the compound) | + (percentage of potentiation is greater than or equal to 10% but less than 50% in the presence of 100 nM of the compound) | ++ (percentage of inhibition of central BZD site binding is greater than 80% in the presence of 1000 nM of the compound) |  | 
OC[C@H]1CCCN1c1ccnc(NCc2c(-c3ccccc3)nc3ccc(Cl)cn23)n1 [Compound 188, (R)-(1-(2-((6-chloro-2-phenylimidazo[1,2-a]pyridin-3-yl)methylamino)pyrimidin-4-yl)pyrrolidin-2-yl)methanol] |  |  | ++ (percentage of inhibition of central BZD site binding is greater than 80% in the presence of 1000 nM of the compound) | ≥ 50% | ≥ 50%
CC1(O)CCN(c2ccnc(NCc3c(-c4ccccc4)nc4ccc(Cl)cn34)n2)CC1 [Compound 187, 1-(2-((6-chloro-2-phenylimidazo[1,2-a]pyridin-3-yl)methylamino)pyrimidin-4-yl)-4-methylpiperidin-4-ol] |  |  | ++ (percentage of inhibition of central BZD site binding is greater than 80% in the presence of 1000 nM of the compound) | -10 to 10% | ≤ -10%
Fc1ccc(-c2nc3ccc(Cl)cn3c2CNc2nccc(C3CCCN3)n2)cc1 (stereo not drawn) [Compound 195] |  |  | ++ (percentage of inhibition of central BZD site binding is greater than 80% in the presence of 1000 nM of the compound) | ≥ 50% | ≥ 50%
Clc1ccc2nc(-c3ccccc3)c(Cn3nnc4ccccc43)n2c1 [Compound 46, 1-((6-chloro-2-phenylH-imidazo[1,2-a]pyridin-3-yl)methyl)-1H-benzo[d][1,2,3]triazole] | 0 (percentage of potentiation is between about 10% to about −10%) | + (percentage of potentiation is greater than or equal to 10% but less than 50% in the presence of 100 nM of the compound) | ++ (percentage of inhibition of central BZD site binding is greater than 80% in the presence of 1000 nM of the compound) |  | 
Cc1ccc2nc(-c3ccc(F)cc3)c(CNc3nc(C)cc(Cl)n3)n2c1 [Compound 160, 4-chloro-N-((2-(4-fluorophenyl)-6-methylimidazo[1,2-a]pyridin-3-yl)methyl)-6-methylpyrimidin-2-amine] |  |  | ++ (percentage of inhibition of central BZD site binding is greater than 80% in the presence of 1000 nM of the compound) | 10 to 50% | 10 to 50%
